Laboratory results taken from ChEMBL document CHEMBL4507315 (2021).
The source made the active and inactive calls. The calls are words filed in the database; no cut-off is given here.

Tests used:
[1] = molecular target: Heat shock protein beta-1 (Homo sapiens, UniProt P04792); experiment: Inhibition of HSP27 (Ser82) (Western blot)
[2] = tested on: Tyrosine-protein kinase ABL1 (Homo sapiens), P00519 [E255K]; conditions: Compound concentration 100.0 nM
[3] = molecular target: NUAK family SNF1-like kinase 1 (Homo sapiens) (UniProt O60285); conditions: Compound concentration 100.0 nM
Sequence of NUAK family SNF1-like kinase 1 (Homo sapiens) (O60285 whole entry): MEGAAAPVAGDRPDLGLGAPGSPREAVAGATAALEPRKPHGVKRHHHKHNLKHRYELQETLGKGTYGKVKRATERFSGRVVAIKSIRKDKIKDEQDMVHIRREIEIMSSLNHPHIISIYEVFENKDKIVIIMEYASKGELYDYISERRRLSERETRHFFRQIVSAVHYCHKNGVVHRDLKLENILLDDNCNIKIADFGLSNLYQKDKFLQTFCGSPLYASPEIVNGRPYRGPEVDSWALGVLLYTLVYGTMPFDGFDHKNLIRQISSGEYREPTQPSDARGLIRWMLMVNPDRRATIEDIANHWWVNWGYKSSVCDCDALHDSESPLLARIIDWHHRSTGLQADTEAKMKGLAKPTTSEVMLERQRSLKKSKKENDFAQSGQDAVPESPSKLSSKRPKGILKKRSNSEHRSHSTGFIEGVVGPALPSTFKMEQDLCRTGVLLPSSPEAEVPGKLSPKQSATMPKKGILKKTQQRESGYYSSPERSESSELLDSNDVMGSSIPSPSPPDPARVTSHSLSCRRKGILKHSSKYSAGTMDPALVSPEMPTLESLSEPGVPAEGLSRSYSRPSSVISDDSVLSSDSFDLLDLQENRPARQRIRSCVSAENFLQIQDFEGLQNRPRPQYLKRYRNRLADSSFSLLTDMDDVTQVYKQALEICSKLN

[4] = molecular target: Calcium/calmodulin-dependent protein kinase type II subunit beta (Homo sapiens) (UniProt Q13554); conditions: Compound concentration 100.0 nM
Sequence of Calcium/calmodulin-dependent protein kinase type II subunit beta (Homo sapiens) (Q13554 whole entry): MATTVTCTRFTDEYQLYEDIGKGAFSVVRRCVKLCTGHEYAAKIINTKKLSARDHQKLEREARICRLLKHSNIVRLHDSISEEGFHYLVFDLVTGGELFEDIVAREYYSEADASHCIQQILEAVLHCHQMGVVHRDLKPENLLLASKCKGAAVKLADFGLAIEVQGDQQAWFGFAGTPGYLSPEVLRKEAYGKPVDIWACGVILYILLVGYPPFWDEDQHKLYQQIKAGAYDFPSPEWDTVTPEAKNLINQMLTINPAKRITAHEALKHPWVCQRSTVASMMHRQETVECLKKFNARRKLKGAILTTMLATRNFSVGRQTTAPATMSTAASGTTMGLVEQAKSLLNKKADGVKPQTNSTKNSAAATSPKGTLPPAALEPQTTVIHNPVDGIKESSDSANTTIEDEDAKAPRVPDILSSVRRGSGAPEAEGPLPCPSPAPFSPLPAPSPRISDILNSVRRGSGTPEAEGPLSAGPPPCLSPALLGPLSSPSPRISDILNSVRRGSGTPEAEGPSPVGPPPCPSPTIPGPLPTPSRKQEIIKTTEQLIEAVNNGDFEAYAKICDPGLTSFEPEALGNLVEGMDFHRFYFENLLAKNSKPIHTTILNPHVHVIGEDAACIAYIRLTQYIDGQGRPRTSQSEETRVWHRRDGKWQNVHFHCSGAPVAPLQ

[5] = molecular target: Cyclin-dependent kinase 11B (Homo sapiens) (UniProt P21127); conditions: Compound concentration 100.0 nM
Sequence of Cyclin-dependent kinase 11B (Homo sapiens) (P21127 whole entry): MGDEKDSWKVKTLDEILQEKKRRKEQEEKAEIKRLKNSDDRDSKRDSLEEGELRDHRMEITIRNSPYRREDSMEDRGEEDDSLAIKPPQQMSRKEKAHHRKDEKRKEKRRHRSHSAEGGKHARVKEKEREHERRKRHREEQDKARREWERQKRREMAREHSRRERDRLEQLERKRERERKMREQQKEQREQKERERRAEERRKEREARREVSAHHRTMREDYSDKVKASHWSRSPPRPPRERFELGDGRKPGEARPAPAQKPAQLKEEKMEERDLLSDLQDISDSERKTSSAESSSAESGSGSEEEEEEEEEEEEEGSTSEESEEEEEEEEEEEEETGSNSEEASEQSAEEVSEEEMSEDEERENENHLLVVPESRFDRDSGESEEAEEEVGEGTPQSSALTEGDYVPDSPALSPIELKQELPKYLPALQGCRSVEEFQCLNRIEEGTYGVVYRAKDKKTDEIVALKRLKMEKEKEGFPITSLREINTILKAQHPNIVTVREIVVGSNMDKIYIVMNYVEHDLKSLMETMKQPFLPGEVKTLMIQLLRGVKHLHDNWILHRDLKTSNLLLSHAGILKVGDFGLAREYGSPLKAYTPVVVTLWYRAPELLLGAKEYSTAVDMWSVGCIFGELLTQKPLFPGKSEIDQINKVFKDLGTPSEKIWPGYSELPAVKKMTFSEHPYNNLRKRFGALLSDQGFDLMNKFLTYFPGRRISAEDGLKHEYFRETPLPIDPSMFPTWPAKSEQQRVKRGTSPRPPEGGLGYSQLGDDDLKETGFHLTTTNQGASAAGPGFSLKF

[6] = molecular target: Cyclin-dependent kinase 5 (Homo sapiens) (UniProt Q00535); conditions: Compound concentration 100.0 nM
Sequence of Cyclin-dependent kinase 5 (Homo sapiens) (Q00535 whole entry, looked up): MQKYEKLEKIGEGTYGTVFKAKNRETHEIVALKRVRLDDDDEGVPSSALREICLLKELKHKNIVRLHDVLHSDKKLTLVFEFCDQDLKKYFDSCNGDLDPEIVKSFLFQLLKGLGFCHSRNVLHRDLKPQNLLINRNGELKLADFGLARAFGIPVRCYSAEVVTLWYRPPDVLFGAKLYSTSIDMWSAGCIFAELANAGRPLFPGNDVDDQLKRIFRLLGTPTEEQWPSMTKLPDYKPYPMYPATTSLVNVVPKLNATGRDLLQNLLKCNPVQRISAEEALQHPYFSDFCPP

[7] = molecular target: Death-associated protein kinase 1 (Homo sapiens) (UniProt P53355); conditions: Compound concentration 100.0 nM
[8] = molecular target: Fibroblast growth factor receptor 4 (Homo sapiens) (UniProt P22455); conditions: Compound concentration 100.0 nM
[9] = molecular target: Mitogen-activated protein kinase kinase kinase kinase 1 (Homo sapiens) (UniProt Q92918); conditions: Compound concentration 100.0 nM
[10] = tested on: Mast/stem cell growth factor receptor Kit (Homo sapiens), P10721 [A829P]; conditions: Compound concentration 100.0 nM
[11] = molecular target: Serine/threonine-protein kinase 24 (Homo sapiens) (UniProt Q9Y6E0); conditions: Compound concentration 100.0 nM
[12] = molecular target: Serine/threonine-protein kinase D1 (Homo sapiens) (UniProt Q15139); conditions: Compound concentration 100.0 nM
[13] = molecular target: TGF-beta receptor type-2 (Homo sapiens) (UniProt P37173); conditions: Compound concentration 100.0 nM
Sequence of TGF-beta receptor type-2 (Homo sapiens) (P37173 whole entry): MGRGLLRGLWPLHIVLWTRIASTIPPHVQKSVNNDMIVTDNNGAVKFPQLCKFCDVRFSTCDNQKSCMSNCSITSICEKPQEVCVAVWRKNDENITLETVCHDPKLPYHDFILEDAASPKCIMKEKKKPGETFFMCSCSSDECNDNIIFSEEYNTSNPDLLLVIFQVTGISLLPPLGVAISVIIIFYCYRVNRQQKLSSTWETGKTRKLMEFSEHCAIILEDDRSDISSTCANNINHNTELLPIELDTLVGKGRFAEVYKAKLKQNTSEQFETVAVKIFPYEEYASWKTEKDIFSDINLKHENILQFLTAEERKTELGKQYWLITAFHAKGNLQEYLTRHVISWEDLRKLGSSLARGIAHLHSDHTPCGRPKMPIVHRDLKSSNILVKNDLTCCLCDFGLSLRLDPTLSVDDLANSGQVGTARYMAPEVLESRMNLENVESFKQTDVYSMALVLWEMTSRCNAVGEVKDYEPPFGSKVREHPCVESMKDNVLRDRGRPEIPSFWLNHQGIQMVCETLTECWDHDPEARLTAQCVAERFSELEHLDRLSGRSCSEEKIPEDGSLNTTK

[14] = molecular target: Serine/threonine-protein kinase TNNI3K (Homo sapiens) (UniProt Q59H18); conditions: Compound concentration 100.0 nM
[15] = molecular target: Dual specificity protein kinase TTK (Homo sapiens) (UniProt P33981); conditions: Compound concentration 100.0 nM
[16] = molecular target: T1, Kappa-type opioid receptor (Homo sapiens, UniProt P41145); conditions: Compound concentration 10.0 uM
T1 sequence (P41145 whole entry): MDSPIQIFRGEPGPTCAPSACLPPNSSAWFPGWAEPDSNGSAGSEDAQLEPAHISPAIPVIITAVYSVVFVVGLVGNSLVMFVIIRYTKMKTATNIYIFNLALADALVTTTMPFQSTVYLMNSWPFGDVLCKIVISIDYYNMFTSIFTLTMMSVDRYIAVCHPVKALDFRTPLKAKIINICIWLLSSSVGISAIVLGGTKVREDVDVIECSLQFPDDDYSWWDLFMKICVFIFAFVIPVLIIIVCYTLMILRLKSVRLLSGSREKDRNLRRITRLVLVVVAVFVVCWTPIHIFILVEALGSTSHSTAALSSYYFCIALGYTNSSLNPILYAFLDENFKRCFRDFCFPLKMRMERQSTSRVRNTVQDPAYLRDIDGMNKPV

[17] = species on record: Rattus norvegicus; conditions: Compound concentration 10.0 uM
[18] = molecular target: T1, Kappa-type opioid receptor; experiment: GPCRScan assay: inhibition of KOR; design: radioligand conc. used [nm] 0.6 – 1.2, parental cells stable HEK
[19] = molecular target: Histamine H1 receptor (Homo sapiens, UniProt P35367); experiment: GPCRScan assay: inhibition of H1; design: radioligand conc. used [nm] 0.6 – 2.0, parental cells stable HEK
[20] = molecular target: Sigma intracellular receptor 2 (Homo sapiens, UniProt Q5BJF2); experiment: GPCRScan assay: inhibition of Sigma 2; design: radioligand conc. used [nm] 5.0, parental cells HEKT
Sequence of Sigma intracellular receptor 2 (Q5BJF2 whole entry): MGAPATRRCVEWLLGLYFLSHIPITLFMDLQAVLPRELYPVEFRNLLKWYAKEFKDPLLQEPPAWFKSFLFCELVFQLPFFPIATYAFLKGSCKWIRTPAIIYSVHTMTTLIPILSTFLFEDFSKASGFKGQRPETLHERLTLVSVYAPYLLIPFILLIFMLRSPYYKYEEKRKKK

[21] = molecular target: Mitogen-activated protein kinase 14 (Homo sapiens) (UniProt Q16539); conditions: Compound concentration 100.0 nM
[22] = molecular target: D(4) dopamine receptor (Homo sapiens) (UniProt P21917); conditions: Compound concentration 10.0 uM
[23] = molecular target: Histamine H2 receptor (Homo sapiens) (UniProt P25021); conditions: Compound concentration 10.0 uM
Sequence of Histamine H2 receptor (Homo sapiens) (P25021 whole entry): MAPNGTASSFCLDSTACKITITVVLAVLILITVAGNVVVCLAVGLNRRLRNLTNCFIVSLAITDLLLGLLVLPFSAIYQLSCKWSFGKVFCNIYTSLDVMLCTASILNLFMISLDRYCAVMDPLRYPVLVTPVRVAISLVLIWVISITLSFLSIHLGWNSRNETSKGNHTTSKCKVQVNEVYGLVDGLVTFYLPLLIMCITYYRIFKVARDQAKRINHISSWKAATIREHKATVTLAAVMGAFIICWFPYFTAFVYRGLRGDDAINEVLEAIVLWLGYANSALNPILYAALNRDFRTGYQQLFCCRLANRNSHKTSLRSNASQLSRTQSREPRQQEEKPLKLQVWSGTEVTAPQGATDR

[24] = molecular target: Muscarinic acetylcholine receptor M5 (Homo sapiens) (UniProt P08912); conditions: Compound concentration 10.0 uM

Sequence of Tyrosine-protein kinase ABL1 (Homo sapiens), P00519 [E255K] (P00519 whole entry E255K): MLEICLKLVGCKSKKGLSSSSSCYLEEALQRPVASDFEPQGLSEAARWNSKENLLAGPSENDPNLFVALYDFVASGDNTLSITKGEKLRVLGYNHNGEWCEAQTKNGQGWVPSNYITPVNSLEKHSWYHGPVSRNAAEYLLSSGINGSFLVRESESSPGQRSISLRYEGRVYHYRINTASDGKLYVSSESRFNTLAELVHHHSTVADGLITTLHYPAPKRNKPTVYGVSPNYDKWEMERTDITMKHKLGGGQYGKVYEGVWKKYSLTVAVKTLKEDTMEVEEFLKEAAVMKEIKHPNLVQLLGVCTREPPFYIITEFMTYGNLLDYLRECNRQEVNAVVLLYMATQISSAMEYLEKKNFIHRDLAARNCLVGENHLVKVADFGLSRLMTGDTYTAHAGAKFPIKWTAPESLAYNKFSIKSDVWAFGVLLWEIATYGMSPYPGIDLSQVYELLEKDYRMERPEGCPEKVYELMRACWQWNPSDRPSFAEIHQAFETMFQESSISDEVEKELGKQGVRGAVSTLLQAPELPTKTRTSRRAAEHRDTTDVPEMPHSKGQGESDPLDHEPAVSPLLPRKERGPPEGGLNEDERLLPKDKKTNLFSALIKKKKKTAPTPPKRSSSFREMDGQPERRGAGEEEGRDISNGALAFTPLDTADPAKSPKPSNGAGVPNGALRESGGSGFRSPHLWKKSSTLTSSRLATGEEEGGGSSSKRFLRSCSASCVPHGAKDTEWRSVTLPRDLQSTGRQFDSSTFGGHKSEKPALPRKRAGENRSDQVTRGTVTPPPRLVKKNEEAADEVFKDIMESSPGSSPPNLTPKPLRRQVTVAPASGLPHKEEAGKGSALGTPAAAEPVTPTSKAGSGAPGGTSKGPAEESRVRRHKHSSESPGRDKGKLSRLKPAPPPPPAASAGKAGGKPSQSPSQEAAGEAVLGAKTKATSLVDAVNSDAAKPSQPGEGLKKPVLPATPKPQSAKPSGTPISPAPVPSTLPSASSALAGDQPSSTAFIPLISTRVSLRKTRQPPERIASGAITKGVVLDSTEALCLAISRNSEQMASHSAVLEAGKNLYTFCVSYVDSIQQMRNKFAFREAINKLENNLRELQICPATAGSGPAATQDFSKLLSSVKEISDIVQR

| SMILES | residual activity [2] [%] | residual activity [3] [%] | residual activity [4] [%] | residual activity [5] [%] | residual activity [6] [%] | residual activity [7] [%] | residual activity [8] [%] | residual activity [9] [%] | residual activity [10] [%] | residual activity [11] [%] | residual activity [12] [%] | residual activity [13] [%] | residual activity [14] [%] | residual activity [15] [%] | inhibition [16] [%] | other results |
| --- | --- | --- | --- | --- | --- | --- | --- | --- | --- | --- | --- | --- | --- | --- | --- | --- |
| Nc1c(C(=O)NCc2ccc(C(=O)NCCCC3CCCCC3)cc2)cnn1-c1ccccc1 [SR-318] | 100 | 100 | 100 | 100 | 100 | 92 | 97 | 99 | 100 | 91 | 100 | 99 | 100 | 100 | 38.6 | IC50 [1]: < 1000 nM (active); inhibition [17]: 27.6% |
| O=C(NCCCC1CCCCC1)c1ccc(CNC(=O)c2cnn(-c3ccccc3)c2C(F)(F)F)cc1 [SR-321] | 92 | 100 | 96 | 100 | 88 | 100 | 100 | 100 | 100 | 100 | 100 | 100 | 79 | 91 | 80.2 | Ki [18]: > 10000 nM; pKi [18]: < 5; Ki [19]: > 10000 nM; pKi [19]: < 5; Ki ([20]; read-out: Ki): 2890 nM; Ki ([20]; read-out: pKi (converted)): 2820 nM; residual activity [21]: 100%; inhibition [22]: 21.7%; inhibition [23]: -2.78%; inhibition [24]: -4.46% |
